Converted amounts (≈) assume the structure as drawn. “And” between values parts separate entries of the source, which are not always exact repeats. Equal entries are not always repeated. Where two headings read alike, the source gives them in different places.
Columns and labels:
[1] = test system: Penicillium citrinum (ATCC 9849); test: MIC, CLSI; format: cell-based; details: ATCC9849, 1 strain
[2] = test system: Trichophyton rubrum (ATCC 10218); test: MIC, CLSI; format: cell-based; details: ATCC10218, 1 strain
[3] = test system: A. fumigatus hyphae (NCPF2010)
Experimental: (§1) The persistence of action of test agents was calculated for A. fumigatus hyphae (NCPF2010). […] The plates were incubated for exactly 20 min at 35°C and 5% CO2. After the incubation time had elapsed, all wells on the designated washout plate were aspirated, and growth medium (100 μl/well) was added across the plate. […] Resazurin (0.04%; diluted in growth medium) was added to all wells of both nonwashout and washout plates (5 μl/well) to give a final concentration of 0.002% resazurin. The plates were incubated at 35°C and 5% CO2 for 16 h. […] The percent inhibition for each well was calculated, and the IC50 was calculated from the concentration-response curve generated for each test compound by use of a four-parameter logistic equation (Dotmatics, Bishops Stortford, United Kingdom).

[4] = test system: AR Candida albicans (20183.073, 20186.025); test: MIC, CLSI; format: cell-based; details: read-out: MIC (the MIC given is the MIC50)
[5] = test system: Aureobasidium pullulans (ATCC 9348); test: MIC, CLSI; format: cell-based; details: ATCC9348, 1 strain
[6] = Precipitation in EUCAST medium; format: physicochemical
[7] = test system: Cryptococcus neoformans (ATCC 24067); test: MIC, CLSI; format: cell-based; details: Cryptococcus neoformans, ATCC24067
[8] = test system: Lichtheimia corymbifera (ATCC 7909); test: MIC, CLSI; format: cell-based; details: ATCC7909, 1 strain
[9] = test system: Aspergillus flavus (AFL8, NRRC3357); test: MIC, EUCAST; format: cell-based
[10] = test system: Aspergillus niger (ATCC 1015); test: MIC, EUCAST; format: cell-based; details: ATCC1015
[11] = test system: A. fumigatus hyphae (NCPF2010); test: Persistence of action on A. fumigatus hyphae (resazurin-based microtiter assay); details: Aspergillus fumigatus, NCPF2010, 16 h, read-out: Hyphae IC50, No washout
Experimental: as §1

A. fumigatus ATCC 204305 = test: MIC with and without BSA supplementation, quality control strain; details: Aspergillus fumigatus
Experimental: (§2) Conidia were added across the plate to a final concentration of 1 × 10^5 ml^−1. […] Determination of antifungal activity against 50 A. fumigatus clinical isolates from St. Louis Hospital (Paris, France) was performed with 96-well plates, using the modified EUCAST method in the presence of 0.5% BSA as described above. Antifungal susceptibility testing of 46 A. fumigatus isolates (obtained from the NW England Mycology Reference Centre) was performed by Evotec UK Ltd. (Manchester, United Kingdom) according to EUCAST guidelines.

[12] = test system: Aspergillus flavus (ATCC 204304); test: MIC, CLSI; format: cell-based; details: ATCC204304
[13] = test system: Mucor circinelloides (ATCC 8542); test: MIC, CLSI; format: cell-based; details: ATCC8542, 1 strain
[14] = test system: 96 clinically isolated A. fumigatus strains; test: MIC against 96 clinically isolated strains (EUCAST, visual)
Experimental: as §2

[15] = test system: Gibberella zeae (Fusarium graminearum) (ATCC 16106); test: microbe, parasite or virus in culture; format: cell-based; details: ATCC16106
[16] = test system: Rhizomucor pusillus (ATCC 16458); test: MIC, CLSI; format: cell-based; details: ATCC16458, 1 strain
[17] = test system: Candida albicans (20240.047, ATCC 10231); test: MIC, CLSI; format: cell-based; details: ATCC10231, read-out: MIC (the MIC given is the MIC50)
[18] = test system: Rhizopus oryzae (ATCC 11145); test: MIC, CLSI; format: cell-based
[19] = test system: Cladosporium argillaceum (ATCC 38013); test: MIC, CLSI; format: cell-based; details: Rhizocladosporium argillaceum, ATCC38013, 1 strain
[20] = test system: Aspergillus terreus (AT49, AT7130); test: MIC, EUCAST; format: cell-based
[21] = test system: Penicillium chrysogenum (ATCC 9480); test: MIC, CLSI; format: cell-based; details: ATCC9480, 1 strain
[22] = test system: Candida krusei (ATCC 6258); test: MIC, CLSI; format: cell-based; details: Pichia kudriavzevii, ATCC6258
[23] = test system: BEAS2B cells infected with A. fumigatus; test: Persistence of action on bronchial epithelial cells (galactomannan in supernatant); format: cell-based, Aspergillus fumigatus; details: for IC50: Aspergillus fumigatus, BEAS-2B
Experimental: The persistence of action of test agents was evaluated on immortalized bronchial epithelial cells (BEAS2B cells). […] Test and reference articles or undiluted DMSO (as vehicle) (0.5 μl/well) was added to the appropriate wells of the washout plate to give a final concentration of 0.5% DMSO. The plate was incubated for exactly 1 h at 37°C and 5% CO2. After the incubation time had elapsed, all wells on the washout plate were aspirated, and growth medium (100 μl/well) was added across the plate. After 24 h of incubation at 37°C, test and reference articles or undiluted DMSO (as vehicle) (0.5 μl/well) was added to the appropriate wells of the nonwashout plate to give a final concentration of 0.5% DMSO. The plate was incubated for exactly 1 h at 37°C and 5% CO2, after which A. fumigatus conidia were added across both plates to a final concentration of 1 × 10^3/well.

[24] = test system: Aspergillus carbonarius (ATCC 8740); test: MIC, CLSI; format: cell-based; details: ATCC8740
A. fumigatus (NCPF2010) = test: A. fumigatus cell-based ergosterol assay; design: species or system Aspergillus fumigatus; details: Aspergillus fumigatus; NCPF2010, 24 h, normalized by crystal violet; read-out: IC50, inhibition of ergosterol production
Experimental: After incubation for 24 h at 35°C, medium was removed from all wells and replaced with reaction buffer (Amplex red cholesterol assay kit; Thermo Fisher) and Amplex red solution. Plates were incubated for 30 min at 37°C, protected from light, after which fluorescence was quantified using a spectrophotometer. Medium was removed from all wells and replaced with crystal violet solution (1% [vol/vol]), and plates were incubated at room temperature on a shaker for 30 min. Plates were washed three times with phosphate-buffered saline (PBS), and sodium dodecyl sulfate solution (0.1% [vol/vol]) was added across the plate to lyse the cells. After incubation at room temperature for 1 h, the absorbance was measured by determining the OD590 by use of a spectrophotometer.

[25] = test system: Chaetomium globosum (ATCC 44699); test: MIC, CLSI; format: cell-based; details: ATCC44699, 1 strain
[26] = test system: Candida glabrata (ATCC 36583, R363); test: MIC, CLSI; format: cell-based; details: Nakaseomyces glabratus, ATCC36583, read-out: MIC (the MIC given is the MIC50)

C[C@@H](c1ncncc1F)[C@](O)(Cn1cncn1)c1ccc(F)cc1F [Voriconazole, voriconazole]
MIC [1]: > 8 µg/mL
MIC [2]: 0.063 µg/mL (≈ 0.18 µM)
IC50 [3]: > 1 µg/mL
MIC50 [4]: 10 µg/mL (≈ 28.6 µM)
MIC [5]: > 8 µg/mL
concentration at which compound precipitated in EUCAST medium [6]: did not
MIC [7]: 0.016 µg/mL (≈ 0.0458 µM)
MIC [8]: > 8 µg/mL
MIC [9]: 0.63 µg/mL (≈ 1.8 µM)
MIC [10]: 1 µg/mL (≈ 2.86 µM)
IC50 [11]: 0.011 µg/mL (≈ 0.0315 µM)
MIC (A. fumigatus ATCC 204305; ATCC204305, with BSA): 1 to 2 µg/mL (≈ 2.86 to 5.73 µM)
MIC (A. fumigatus ATCC 204305; ATCC204305, without BSA): 2 µg/mL (≈ 5.73 µM)
MIC [12]: 2 µg/mL (≈ 5.73 µM)
MIC [13]: > 8 µg/mL
MIC, Range ([14]; 96 clinical isolates, determined visually): 0.064 to 4 µg/mL
MIC50 ([14]; Aspergillus fumigatus): 0.5 µg/mL (≈ 1.43 µM)
MIC90 ([14]; Aspergillus fumigatus): 1 µg/mL (≈ 2.86 µM)
MIC ([14]; Aspergillus fumigatus, read-out: MIC, Geometric mean): 0.42 µg/mL (≈ 1.2 µM)
MIC ([14]; Aspergillus fumigatus, read-out: MIC, Mode): 0.5 µg/mL (≈ 1.43 µM)
MIC [15]: > 8 µg/mL
MIC [16]: > 8 µg/mL
MIC50 [17]: 0.14 µg/mL (≈ 0.401 µM)
MIC ([18]; 1 strain): >8 µg/mL
MIC ([18]; Rhizopus arrhizus, ATCC11145, 1 strain, read-out: MIC): > 8 µg/mL
MIC [19]: 0.5 µg/mL (≈ 1.43 µM)
MIC [20]: 1 µg/mL (≈ 2.86 µM)
MIC [21]: 2 µg/mL (≈ 5.73 µM)
MIC [22]: 0.25 µg/mL (≈ 0.716 µM)
BEAS2B cells IC50, Washout ([23]; 1 h contact, 24-h washout prior to infection, GM readout): ineffective
IC50 ([23]; 1 h contact before infection, GM readout after 24 h, read-out: BEAS2B cells IC50, No washout): 0.054 µg/mL (≈ 0.155 µM)
IC50 ([23]; 1 h contact, 24-h washout prior to infection, GM readout, read-out: BEAS2B cells IC50, Washout): > 1 µg/mL
MIC [24]: 0.5 µg/mL (≈ 1.43 µM)
IC50 (A. fumigatus (NCPF2010)): 0.067 µg/mL and 190 nM
MIC [25]: 1 µg/mL (≈ 2.86 µM)
MIC50 [26]: 8.13 µg/mL (≈ 23.3 µM)

CCC(C)n1ncn(-c2ccc(N3CCN(c4ccc(OCC5COC(Cn6cncn6)(c6ccc(Cl)cc6Cl)O5)cc4)CC3)cc2)c1=O (stereo not shown) [Itraconazole, itraconazole]
MIC (A. fumigatus ATCC 204305; ATCC204305, with BSA): 0.125 µg/mL (≈ 0.177 µM)
MIC (A. fumigatus ATCC 204305; ATCC204305, without BSA): 0.25 µg/mL (≈ 0.354 µM)

C[C@@H]1[C@H](O)[C@@H](C)/C=C/C=C/C=C/C=C/C=C/C=C/C=C/[C@H](O[C@@H]2O[C@H](C)[C@@H](O)[C@H](N)[C@@H]2O)C[C@@H]2O[C@](O)(C[C@@H](O)C[C@@H](O)[C@H](O)CC[C@@H](O)C[C@@H](O)CC(=O)O[C@H]1C)C[C@H](O)[C@H]2C(=O)O [Amphotericin B, amphotericin B]
MIC (A. fumigatus ATCC 204305; ATCC204305, with BSA): 2 µg/mL (≈ 2.16 µM)
MIC (A. fumigatus ATCC 204305; ATCC204305, without BSA): 1 µg/mL (≈ 1.08 µM)

Source: article PMC5404542, “In Vitro and In Vivo Antifungal Profile of a Novel and Long-Acting Inhaled Azole, PC945, on Aspergillus fumigatus Infection” (Antimicrobial Agents and Chemotherapy, 2017)
